This is an account of results in ChEMBL document CHEMBL1155385, “The identification of a selective dopamine D2 partial agonist, D3 antagonist displaying high levels of brain exposure” (Bioorg Med Chem Lett, 2010).

Values after ≈ are worked out from the molar mass of the structure shown.

The target of one data set is D(2) dopamine receptor (Homo sapiens, UniProt P14416). Briefly: Partial agonistic activity at human dopamine D2 receptor expressed in CHO cells by assay [35S]GTPgamma assay with scintillation proximity affinity assay. The data set is classed as functional, cell-based. In general terms: In a scintillation proximity assay essentially only radioactivity close to the scintillant gives light.
Chain of D(2) dopamine receptor (P14416 whole entry): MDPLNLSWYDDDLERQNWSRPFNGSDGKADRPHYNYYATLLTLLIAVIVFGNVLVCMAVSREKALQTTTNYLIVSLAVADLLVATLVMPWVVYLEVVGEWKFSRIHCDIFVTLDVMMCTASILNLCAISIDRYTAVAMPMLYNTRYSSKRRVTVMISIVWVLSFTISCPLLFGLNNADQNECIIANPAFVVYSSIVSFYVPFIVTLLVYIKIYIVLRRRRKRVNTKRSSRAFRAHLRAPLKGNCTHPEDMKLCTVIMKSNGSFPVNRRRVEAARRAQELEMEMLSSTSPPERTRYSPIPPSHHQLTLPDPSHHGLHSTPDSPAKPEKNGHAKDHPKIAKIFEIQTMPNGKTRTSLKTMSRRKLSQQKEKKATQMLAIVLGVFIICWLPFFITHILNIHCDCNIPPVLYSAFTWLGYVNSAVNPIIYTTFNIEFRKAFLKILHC

The target of the next data set is D(3) dopamine receptor (Homo sapiens, UniProt P35462). Kind of data set: Antagonist activity at human dopamine D3 receptor expressed in CHO cells assessed as inhibition of quinperol-induced [35S]GTPgamma binding by scintillation proximity affinity assay. Format: functional, cell-based.
Chain of D(3) dopamine receptor (P35462 whole entry): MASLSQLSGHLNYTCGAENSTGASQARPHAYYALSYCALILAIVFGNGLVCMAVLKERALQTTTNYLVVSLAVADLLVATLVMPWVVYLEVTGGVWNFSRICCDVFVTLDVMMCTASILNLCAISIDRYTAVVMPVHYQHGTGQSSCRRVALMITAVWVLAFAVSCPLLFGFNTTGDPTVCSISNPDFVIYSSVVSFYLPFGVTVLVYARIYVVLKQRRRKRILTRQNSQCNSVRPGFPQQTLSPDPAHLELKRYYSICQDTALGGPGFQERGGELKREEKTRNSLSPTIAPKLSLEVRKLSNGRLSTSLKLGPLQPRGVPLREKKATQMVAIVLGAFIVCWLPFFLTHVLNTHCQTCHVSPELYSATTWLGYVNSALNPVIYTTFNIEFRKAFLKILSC
Data set [1] in a line: Solubility of the compound. Format: physicochemical.
A short description of data set [2]: Lipophilicity, log D at pH 7.4. Format: physicochemical. The conditions noted are these: buffer.
In the next data set the test system is Liver microsomes. Kind of data set: Intrinsic clearance in rat liver microsomes. Format: ADME, Microsome. On the technique in general: Liver microsomes are a subcellular fraction often used to study metabolism.
A short description of data set [3]: Intrinsic clearance in human liver microsomes. Format: ADME, Microsome.
The target of another data set is Cytochrome P450 2D6 (Homo sapiens, UniProt P10635). Kind of data set: Inhibition of human recombinant CYP2D6 by spectrofluorimetry. Format: ADME.
Chain of Cytochrome P450 2D6 (P10635 whole entry): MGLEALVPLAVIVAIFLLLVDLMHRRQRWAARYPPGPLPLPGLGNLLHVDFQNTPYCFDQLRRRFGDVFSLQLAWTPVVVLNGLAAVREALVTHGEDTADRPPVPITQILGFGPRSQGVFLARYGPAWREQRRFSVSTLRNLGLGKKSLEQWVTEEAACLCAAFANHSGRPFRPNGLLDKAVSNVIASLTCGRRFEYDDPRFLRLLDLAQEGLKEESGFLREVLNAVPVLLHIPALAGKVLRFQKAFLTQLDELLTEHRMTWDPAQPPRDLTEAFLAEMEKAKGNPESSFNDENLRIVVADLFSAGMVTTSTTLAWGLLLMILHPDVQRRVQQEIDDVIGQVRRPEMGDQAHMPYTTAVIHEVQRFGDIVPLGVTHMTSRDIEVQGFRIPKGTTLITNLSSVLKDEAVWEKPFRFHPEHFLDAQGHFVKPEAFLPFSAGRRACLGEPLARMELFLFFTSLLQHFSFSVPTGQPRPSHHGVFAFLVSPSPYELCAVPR
Data set [4] concerns the target T1, 5-hydroxytryptamine receptor 1A (Homo sapiens, UniProt P08908).
T1 sequence (P08908 whole entry): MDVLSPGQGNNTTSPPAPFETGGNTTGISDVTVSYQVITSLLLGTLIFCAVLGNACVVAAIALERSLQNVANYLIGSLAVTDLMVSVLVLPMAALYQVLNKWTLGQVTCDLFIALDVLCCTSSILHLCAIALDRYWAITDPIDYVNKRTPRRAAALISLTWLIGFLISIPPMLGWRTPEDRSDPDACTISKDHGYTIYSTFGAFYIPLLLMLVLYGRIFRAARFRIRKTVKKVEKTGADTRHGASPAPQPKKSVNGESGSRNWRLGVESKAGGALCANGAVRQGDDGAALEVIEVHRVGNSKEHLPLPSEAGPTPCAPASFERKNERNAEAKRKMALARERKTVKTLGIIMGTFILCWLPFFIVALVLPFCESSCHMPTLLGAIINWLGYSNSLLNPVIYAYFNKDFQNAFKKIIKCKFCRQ
Kind of data set: Binding affinity to 5HT1A receptor.

The target in data set [5] is 5-hydroxytryptamine receptor 1D (Homo sapiens, UniProt P28221). Kind of data set: Binding affinity to 5HT1D receptor.
Chain of 5-hydroxytryptamine receptor 1D (P28221 whole entry): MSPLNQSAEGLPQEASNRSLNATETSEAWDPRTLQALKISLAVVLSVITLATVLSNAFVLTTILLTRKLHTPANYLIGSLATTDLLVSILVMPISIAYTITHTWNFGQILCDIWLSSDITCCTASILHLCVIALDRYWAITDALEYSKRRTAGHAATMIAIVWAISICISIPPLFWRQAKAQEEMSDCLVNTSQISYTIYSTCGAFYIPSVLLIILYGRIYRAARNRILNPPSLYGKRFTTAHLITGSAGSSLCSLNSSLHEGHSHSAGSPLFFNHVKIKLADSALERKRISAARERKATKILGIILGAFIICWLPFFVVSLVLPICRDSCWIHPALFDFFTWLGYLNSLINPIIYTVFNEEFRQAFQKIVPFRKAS
The target in data set [6] is 5-hydroxytryptamine receptor 2A (Homo sapiens, UniProt P28223). Briefly: Activity at 5HT2A receptor.
Chain of 5-hydroxytryptamine receptor 2A (P28223 whole entry): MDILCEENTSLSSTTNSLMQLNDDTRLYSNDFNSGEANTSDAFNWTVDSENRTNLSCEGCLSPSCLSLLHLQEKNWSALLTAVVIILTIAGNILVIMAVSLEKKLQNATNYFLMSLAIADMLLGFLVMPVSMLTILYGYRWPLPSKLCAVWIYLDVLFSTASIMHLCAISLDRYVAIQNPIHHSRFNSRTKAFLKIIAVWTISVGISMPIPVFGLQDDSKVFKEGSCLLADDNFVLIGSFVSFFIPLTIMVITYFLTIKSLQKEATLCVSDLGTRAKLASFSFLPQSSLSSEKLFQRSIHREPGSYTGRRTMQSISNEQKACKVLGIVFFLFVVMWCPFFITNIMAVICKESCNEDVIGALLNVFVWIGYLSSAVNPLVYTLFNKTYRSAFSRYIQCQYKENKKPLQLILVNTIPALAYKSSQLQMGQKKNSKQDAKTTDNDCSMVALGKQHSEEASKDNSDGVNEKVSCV
The target of data set [7] is T2, Alpha-1B adrenergic receptor (Homo sapiens, UniProt P35368).
T2 sequence (P35368 whole entry): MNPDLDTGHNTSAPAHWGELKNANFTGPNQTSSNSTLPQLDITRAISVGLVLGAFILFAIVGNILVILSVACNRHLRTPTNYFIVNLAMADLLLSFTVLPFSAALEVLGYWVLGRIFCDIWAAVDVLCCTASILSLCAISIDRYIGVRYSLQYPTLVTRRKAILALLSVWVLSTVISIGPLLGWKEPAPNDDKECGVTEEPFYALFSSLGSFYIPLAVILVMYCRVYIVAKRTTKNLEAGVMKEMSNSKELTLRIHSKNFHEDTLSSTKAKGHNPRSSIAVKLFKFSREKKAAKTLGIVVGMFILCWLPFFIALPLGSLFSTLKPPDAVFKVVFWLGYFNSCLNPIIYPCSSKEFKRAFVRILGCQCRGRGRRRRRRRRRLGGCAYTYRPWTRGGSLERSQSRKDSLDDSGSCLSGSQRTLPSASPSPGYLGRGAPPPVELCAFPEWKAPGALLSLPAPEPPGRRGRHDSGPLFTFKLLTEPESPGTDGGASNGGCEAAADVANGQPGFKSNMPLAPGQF
Kind of data set: Activity at Alpha-1B adrenergic receptor.

A further data set deals with Histamine H1 receptor (Homo sapiens, UniProt P35367). Kind of data set: Activity at histamine H1 receptor.
Chain of Histamine H1 receptor (P35367 whole entry): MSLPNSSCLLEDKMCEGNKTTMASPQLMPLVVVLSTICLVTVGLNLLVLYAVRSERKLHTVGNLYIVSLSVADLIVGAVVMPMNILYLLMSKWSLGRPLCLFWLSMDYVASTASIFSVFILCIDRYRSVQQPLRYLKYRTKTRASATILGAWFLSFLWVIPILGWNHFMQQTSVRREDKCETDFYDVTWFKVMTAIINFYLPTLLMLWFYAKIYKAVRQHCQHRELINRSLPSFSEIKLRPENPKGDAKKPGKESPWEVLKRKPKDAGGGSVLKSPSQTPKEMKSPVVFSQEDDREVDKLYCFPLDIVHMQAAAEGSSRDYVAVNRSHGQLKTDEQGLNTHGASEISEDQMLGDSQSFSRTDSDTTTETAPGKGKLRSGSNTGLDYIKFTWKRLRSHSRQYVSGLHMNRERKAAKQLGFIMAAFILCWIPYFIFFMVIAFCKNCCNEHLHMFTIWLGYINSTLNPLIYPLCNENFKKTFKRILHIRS
Data set [8] concerns the target Voltage-gated inwardly rectifying potassium channel KCNH2 (Homo sapiens, UniProt Q12809). Briefly: Displacement of [3H]dofetilide from human ERG by scintillation proximity assay. On the technique in general: Loss of bound radioactivity is the signal in a displacement assay; it reports binding, not function.

Chain of Voltage-gated inwardly rectifying potassium channel KCNH2 (Q12809 whole entry): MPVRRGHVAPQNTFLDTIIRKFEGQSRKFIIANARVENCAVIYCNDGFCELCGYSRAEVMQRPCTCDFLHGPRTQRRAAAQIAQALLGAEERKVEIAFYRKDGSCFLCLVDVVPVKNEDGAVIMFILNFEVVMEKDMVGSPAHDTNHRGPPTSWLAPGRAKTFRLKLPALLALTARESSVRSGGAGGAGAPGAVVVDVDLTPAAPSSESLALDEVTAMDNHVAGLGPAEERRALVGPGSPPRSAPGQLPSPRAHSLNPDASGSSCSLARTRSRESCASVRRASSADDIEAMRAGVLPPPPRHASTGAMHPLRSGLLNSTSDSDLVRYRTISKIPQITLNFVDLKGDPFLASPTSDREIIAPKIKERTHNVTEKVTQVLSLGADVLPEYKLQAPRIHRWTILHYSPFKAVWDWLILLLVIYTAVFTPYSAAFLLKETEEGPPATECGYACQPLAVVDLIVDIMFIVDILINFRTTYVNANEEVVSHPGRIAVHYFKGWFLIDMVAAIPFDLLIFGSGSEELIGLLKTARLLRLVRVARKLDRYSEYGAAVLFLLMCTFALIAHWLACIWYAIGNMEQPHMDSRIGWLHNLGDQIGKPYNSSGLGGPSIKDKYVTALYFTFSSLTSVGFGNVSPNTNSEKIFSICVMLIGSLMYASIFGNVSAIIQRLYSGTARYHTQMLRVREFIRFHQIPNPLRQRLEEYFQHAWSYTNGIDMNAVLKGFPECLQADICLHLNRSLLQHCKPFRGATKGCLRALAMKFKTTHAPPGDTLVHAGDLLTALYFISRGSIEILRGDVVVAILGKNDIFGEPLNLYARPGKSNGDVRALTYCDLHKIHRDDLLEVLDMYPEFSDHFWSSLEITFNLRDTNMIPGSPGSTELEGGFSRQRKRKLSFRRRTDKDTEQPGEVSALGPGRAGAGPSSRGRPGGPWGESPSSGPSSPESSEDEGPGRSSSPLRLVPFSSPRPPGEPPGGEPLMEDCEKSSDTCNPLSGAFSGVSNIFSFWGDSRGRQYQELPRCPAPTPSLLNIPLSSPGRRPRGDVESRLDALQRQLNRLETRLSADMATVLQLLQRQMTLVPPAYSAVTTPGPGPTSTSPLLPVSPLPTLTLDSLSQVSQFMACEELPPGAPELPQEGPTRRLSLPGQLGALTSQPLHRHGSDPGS

Usually EC50 stands for the midpoint of the concentration-response curve. Broadly, the Ki is a measure of affinity in units of concentration, obtained from inhibition or displacement. `O=C1N(CC2CCCCN2)CCN1c1cccnc1` (stereo not drawn): the EC50 on D(2) dopamine receptor is 501 nM; at D(3) dopamine receptor, more than 3160 nM. For the same compound, the Ki at D(2) dopamine receptor and at D(3) dopamine receptor was more than 631 nM in each case.
At D(2) dopamine receptor, `O=C1N(CCN2CCCCCC2)CCN1c1cccc(Cl)c1` had an EC50 of 1 nM and an inhibitory constant (Ki) of 10 nM. Also, on D(3) dopamine receptor, the 50% effective concentration (EC50) is more than 3160 nM and the inhibition constant (Ki) is 5.01 nM.
For `Cc1ccc(N2CCN(CCN3CCCCCC3)C2=O)cc1` the same measures were more than 7940 nM, 50.1 nM, more than 3160 nM and 126 nM.
On D(2) dopamine receptor, `CN1CCCCC1CN1CCN(c2cccc(Cl)c2)C1=O` (stereo not drawn) gave an EC50 of 2.51 nM and a Ki of 15.8 nM. For the same compound, at D(3) dopamine receptor, the EC50 is more than 3160 nM and the Ki is 3.98 nM.
In the same order, the values of `O=C1N(CCN2CCCCCC2)CCN1c1ccc(Cl)cc1` are 50.1 nM, 100 nM, more than 3160 nM and 79.4 nM.
Regarding `O=C1N(CCN2CCCCCC2)CCN1c1cc(Cl)cc(Cl)c1`, on D(2) dopamine receptor, the EC50 was more than 7940 nM and affinity was put at a Ki of 0.631 nM. Moreover, on D(3) dopamine receptor, the EC50 is more than 3160 nM and the Ki was 1.58 nM.
Consider `Cc1ccccc1N1CCN(CCN2CCCCCC2)C1=O`, for which the figures for the EC50 at D(2) dopamine receptor and on D(3) dopamine receptor were more than 7940 nM and more than 3160 nM, respectively. Moreover, the Ki on D(2) dopamine receptor and at D(3) dopamine receptor was more than 631 nM in each case.
`Cc1cccc(N2CCN(CCN3CCCCCC3)C2=O)c1`: the EC50 is 10 nM on D(2) dopamine receptor and more than 3160 nM on D(3) dopamine receptor. For the same compound, the results for the Ki at D(2) dopamine receptor and on D(3) dopamine receptor were 25.1 nM and 79.4 nM, respectively.
At D(2) dopamine receptor, `COc1cccc(N2CCN(CCN3CCCCCC3)C2=O)c1` showed an EC50 of more than 7940 nM and a Ki of 39.8 nM. Besides, on D(3) dopamine receptor, the EC50 was more than 3160 nM and the inhibition constant (Ki) is 50.1 nM.
With `O=C1N(CCN2CCCCCC2)CCN1c1cccc(C(F)(F)F)c1`, on D(2) dopamine receptor, the EC50 was more than 7940 nM and the affinity corresponds to a Ki of 1.58 nM. For the same compound, on D(3) dopamine receptor, the EC50 is more than 3160 nM and the Ki was 1 nM.
In the same order, the values of `O=C1N(CCN2CCCCCC2)CCN1c1ccccc1` are 0.631 nM, 7.94 nM, more than 3160 nM and 63.1 nM.
On D(2) dopamine receptor, `O=C1N(CCN2CCCCCC2)CCN1c1cccc(F)c1` had an EC50 of 0.794 nM and a Ki of 2.51 nM. In addition, at D(3) dopamine receptor, the EC50 is more than 3160 nM and the Ki was 15.8 nM.
In the case of `O=C1N(CCN2CCCCCC2)CCN1c1ccc(F)cc1`, the EC50 at D(2) dopamine receptor is 10 nM; at D(3) dopamine receptor it was more than 3160 nM. Moreover, the Ki is 63.1 nM on D(2) dopamine receptor and 251 nM at D(3) dopamine receptor.
Regarding `O=C1N(CCN2CCCCCC2)CCN1c1ccc(F)c(Cl)c1`, on D(2) dopamine receptor, the EC50 was 10 nM and the affinity corresponds to a Ki of 15.8 nM. In addition, at D(3) dopamine receptor, the EC50 was more than 3160 nM and the Ki was 25.1 nM.
In the same order, the values of `O=C1N(CCN2CCCCCC2)CCN1c1cccnc1` are 7.94 nM, 100 nM, more than 3160 nM and 79.4 nM.
On D(2) dopamine receptor, `O=C1N(CCN2CCCCCC2)CCN1c1ccncc1` had an EC50 of more than 3160 nM and a Ki of 631 nM. Also, on D(3) dopamine receptor, the EC50 was more than 3160 nM and the Ki is more than 631 nM.
As for `O=c1n(CCN2CCCCCC2)ccn1-c1cccc(Cl)c1`, on D(2) dopamine receptor, it took 126 nM to reach a half-maximal effect (EC50) and the Ki was 398 nM. At D(3) dopamine receptor, the EC50 is more than 3160 nM and the Ki is more than 631 nM.
In the same order, the values of `O=S1(=O)N(CCN2CCCCCC2)CCN1c1cccc(Cl)c1` are 126 nM, 200 nM, more than 3160 nM and 316 nM.
Broadly, the solubility is how much of the substance goes into solution per volume. One may read the logD as lipophilicity at a set pH, counting ionised and neutral species. One may read the CLint scaled as the rate of metabolic loss divided by the concentration. A high value points to faster metabolism. For orientation: IC50 means the concentration at which inhibition is half-maximal. Regarding `O=C1N(CC2CCCCN2)CCN1c1cccc(Cl)c1` (stereo not drawn), the EC50 on D(2) dopamine receptor is 0.631 nM; on D(3) dopamine receptor it was more than 3160 nM; in data set [4] it was 794 nM; in [5] it was 501 nM. Also, the Ki on D(2) dopamine receptor was 79.4 nM; at D(3) dopamine receptor it was 3.98 nM; in data set [6], more than 1580 nM; in data set [7] it was more than 251 nM; at Histamine H1 receptor, more than 2510 nM. The concentration in solution in data set [1] (solubility) was 148 µg/mL (≈ 504 µM). This compound registered a logD in [2] of 1.24. Besides, the CL with Liver microsomes was determined as 23.7 mL/min/g. The compound also registered a CLint scaled in [3] of 3.4 mL/min/g. In addition, the IC50 was 1000 nM at Cytochrome P450 2D6 and 7940 nM in data set [8].
On D(2) dopamine receptor, `O=C1N(CC2CCCNC2)CCN1c1cccc(Cl)c1` (stereo not drawn) had a concentration giving a half-maximal response (EC50) of more than 7940 nM and a Ki of more than 631 nM. Further, on D(3) dopamine receptor, the concentration for a half-maximal effect (EC50) was more than 3160 nM and the Ki is more than 631 nM.
Turning to `O=C1N(CC2CCNCC2)CCN1c1cccc(Cl)c1`, the EC50 at D(2) dopamine receptor was more than 7940 nM; at D(3) dopamine receptor it was more than 3160 nM. The Ki at D(2) dopamine receptor and on D(3) dopamine receptor was more than 631 nM each time.
`O=C1N(CC2CCCCN2)CCN1c1cccc(C(F)(F)F)c1` (stereo not drawn): at D(2) dopamine receptor, the EC50 is more than 7940 nM and the Ki was 20 nM. For the same compound, on D(3) dopamine receptor, the EC50 is more than 3160 nM and the Ki was 0.251 nM.
In the same order, the values of `O=c1n(CCCN2CCCCCC2)ccn1-c1cccc(Cl)c1` are more than 7940 nM, 631 nM, more than 3160 nM and 126 nM.
